Results: patent US11166460B2, “α-amino acrylate microbicide, and preparation method therefor and uses thereof” (priority 2017, dated 2021)
Like-named read-outs stand apart in the source and are kept apart here.

What was measured:
[1] = test system: tobacco mosaic virus (TMV); experiment: Anti-TMV curative activity (treatment mode), live friction inoculation on tobacco seedlings; type: in vivo; conditions: Tobacco mosaic virus, read-out: Anti-TMV activity, Curative effect (inhibition), 100 μg/mL, tobacco seedlings, checked on seventh day
[2] = test system: tobacco mosaic virus (TMV); experiment: Anti-TMV inactivation activity (inactivation mode), compound mixed with TMV before inoculation of tobacco leaves; type: in vivo; conditions: Tobacco mosaic virus, read-out: Anti-TMV activity, Inactivation effect (inhibition)
[3] = test system: tobacco mosaic virus (TMV); experiment: Anti-TMV protective activity (protection mode), live friction inoculation on tobacco seedlings; type: in vivo; conditions: Tobacco mosaic virus, read-out: Anti-TMV activity, Protection effect (inhibition)
[4] = test system: tobacco mosaic virus (TMV); experiment: Anti-TMV inducing activity (induction mode), tobacco seedlings; type: in vivo; conditions: Tobacco mosaic virus, read-out: Anti-TMV activity, Induction effect (inhibition), 100 μg/mL, tobacco seedlings
Alternaria solani = experiment: Fungicidal activity, fungi growth rate method, AS; type: cell-based; conditions: Alternaria solani, 50 μg/mL
Botrytis cinerea = experiment: Fungicidal activity, fungi growth rate method, BC; type: cell-based; conditions: Botrytis cinerea, 50 μg/mL
Cercospora arachidicola = experiment: Fungicidal activity, fungi growth rate method, CA; type: cell-based; conditions: Mycosphaerella arachidis, 50 μg/mL
wheat Gibberella zeae = experiment: microbe, parasite or virus in culture; type: cell-based; conditions: Fusarium graminearum
[5] = test system: Phytophthora infestans (Mont) de Bary; experiment: microbe, parasite or virus in culture; type: cell-based; conditions: Phytophthora infestans
Physalospora piricola = experiment: Fungicidal activity, fungi growth rate method, PP; type: cell-based; conditions: 50 μg/mL
Pellicularia sasakii = experiment: Fungicidal activity, fungi growth rate method, PS; type: cell-based; conditions: 50 μg/mL
Rhizoctonia cerealis = experiment: Fungicidal activity, fungi growth rate method, RC; type: cell-based; conditions: Ceratobasidium cereale, 50 μg/mL
Sclerotinia sclerotiorum = experiment: microbe, parasite or virus in culture; type: cell-based; conditions: Sclerotinia sclerotiorum, 50 μg/mL
[6] = read-out: Fungicidal activity, inhibition, AS
[7] = read-out: Fungicidal activity (inhibition) against BC: Botrytis cinerea
[8] = read-out: Fungicidal activity, inhibition, BC
[9] = read-out: Fungicidal activity, inhibition, CA
[10] = read-out: Fungicidal activity, inhibition, GZ
[11] = read-out: Fungicidal activity (inhibition) against PI: Phytophthora infestans (Mont) de Bary
[12] = read-out: Fungicidal activity, inhibition, PI
[13] = read-out: Fungicidal activity, inhibition, PP
[14] = read-out: Fungicidal activity (inhibition) against PS: Pellicularia sasakii
[15] = read-out: Fungicidal activity, inhibition, PS
[16] = read-out: Fungicidal activity, inhibition, RC
[17] = read-out: Fungicidal activity, inhibition, SS
[18] = read-out: Fungicidal activity (inhibition) against RC: Rhizoctonia cerealis
[19] = read-out: Fungicidal activity (inhibition) against SS: Sclerotinia sclerotiorum

SMILES	inhibition at 100 µg/mL [1] [%]	inhibition at 100 µg/mL [2] [%]	inhibition at 100 µg/mL [3] [%]	inhibition at 100 µg/mL [4] [%]	inhibition at 50 µg/mL (Alternaria solani; [6]) [%]	inhibition at 50 µg/mL (Botrytis cinerea; [7]) [%]	inhibition at 50 µg/mL (Botrytis cinerea; [8]) [%]	inhibition at 50 µg/mL (Cercospora arachidicola; [9]) [%]	inhibition at 50 µg/mL (wheat Gibberella zeae; [10]) [%]	inhibition at 50 µg/mL [5, 11] [%]	inhibition at 50 µg/mL [5, 12] [%]	inhibition at 50 µg/mL (Physalospora piricola; [13]) [%]	inhibition at 50 µg/mL (Pellicularia sasakii; [14]) [%]	inhibition at 50 µg/mL (Pellicularia sasakii; [15]) [%]	inhibition at 50 µg/mL (Rhizoctonia cerealis; [16]) [%]	inhibition at 50 µg/mL (Sclerotinia sclerotiorum; [17]) [%]	melting point [°C]	inhibition at 50 µg/mL (Sclerotinia sclerotiorum; [19]) [%]	further results
Cc1nnsc1/C=C(\NC(=O)c1ccccc1)C(=O)N1CCC(O)(c2ccc(Br)cc2)CC1 [Compound 27, (Z)-N-[1-[[4-(4-bromophenyl)-4-hydroxy-1-piperidinyl]carbonyl]-2-[5-(4-methyl-1,2,3-thiadiazol)]ethenyl]benzamide]	3	34	37	0	21	~20	26	12	57	~20	24	12	~20	20	23	47	212 to 214		
Cc1snnc1/C=C(\NC(=O)c1ccccc1)C(=O)N1CCC(O)(c2ccc(Br)cc2)CC1 [Compound 28, (Z)-N-[1-[[4-(4-bromophenyl)-4-hydroxy-1-piperidinyl]carbonyl]-2-[4-(5-methyl-1,2,3-thiadiazol)]ethenyl]benzamide]	43	3	36	4	32	~20	24	27	77	~20	19	29	~20	27	62	75	231 to 233	60 to 80	inhibition at 50 µg/mL (Rhizoctonia cerealis; [18]): 62%
CC(C)(C)OC(=O)N1CCC(c2nc(/C=C(\NC(=O)c3ccccc3)C(=O)N3CCC(O)(c4ccc(Br)cc4)CC3)cs2)CC1 [Compound 29, (Z)-N-[1-[[4-(4-bromophenyl)-4-hydroxy-1-piperidinyl]carbonyl]-2-[4-[2-[4-(1-Boc-piperidine)]thiazol]]ethenyl]benzamide]	36	0	0	2	6		7	13	3		14	0		11	10	67	166 to 168		
CCOC(=O)c1csc(C2CCN(C(=O)/C(=C/c3ccccc3)NC(=O)c3ccccc3)CC2)n1 [Compound 30, (Z)-N-[1-[[[4-[2-(ethylthiazole-4-carboxylate)]]-1-piperidinyl]carbonyl]-2-phenylethenyl]benzamide]	3	0	0	2	13		17	7	11		9	2		13	4	82	114 to 115	80 to 95	
O=C(N/C(=C\c1ccccc1)C(=O)N1CCC(c2nc(CO)cs2)CC1)c1ccccc1 [Compound 31, (Z)-N-[1-[[[4-[2-(4-hydroxymethylthiazol)]]-1-piperidinyl]carbonyl]-2-phenylethenyl]benzamide]	0	0	0	33	21		7	23	7		24	0		5	16	56	118 to 120		
CNC(=O)/C(=C/c1ccccc1)NC(=O)c1ccccc1 [Compound 32, (Z)-N-[1-[(methylamino)carbonyl]-2-phenylethenyl]benzamide]	0	25	58	10	5	≤ 20	11	16	6	< 25	16	12	< 30	13	4	80	185 to 187	80	inhibition at 50 µg/mL (Alternaria solani; read-out: Fungicidal activity (inhibition) against AS: Alternaria solani): < 30%; inhibition at 50 µg/mL (Cercospora arachidicola; read-out: Fungicidal activity (inhibition) against CA: Cercospora arachidicola): < 25%; inhibition at 50 µg/mL (wheat Gibberella zeae; read-out: Fungicidal activity (inhibition) against GZ: wheat Gibberella zeae): < 45%; inhibition at 50 µg/mL (Physalospora piricola; read-out: Fungicidal activity (inhibition) against PP: Physalospora piricola): < 20%; inhibition at 50 µg/mL (Rhizoctonia cerealis; [18]): < 20%
CONC(=O)/C(=C/c1ccccc1)NC(=O)c1ccccc1 [Compound 33, (Z)-N-[1-[(methoxylamino)carbonyl]-2-phenylethenyl]benzamide]	3	0	1	45	21		22	13	0		8	3		5	10	17	166 to 168		
COC(=O)[C@H](C)NC(=O)/C(=C/c1ccccc1)NC(=O)c1ccccc1 [Compound 34, (S,Z)-N-[1-[[1-(2-methyl propanoate)amino]carbonyl]-2-phenylethenyl]benzamide]	0	0	0	50	21		24	16	16		5	0		0	3	56	147 to 148		
